Reference: patent publication US20250129331A1, “MEDIUM COMPOSITION FOR CULTURE OF EXTRAEMBRYONIC ENDODERM STEM CELLS” (SEOUL NATIONAL UNIVERSITY R&DB FOUNDATION, priority 2023, published 2025)
Entries after “also recorded” stand apart in the source; their conditions may differ.

B1: Act A: activin A (R&D Systems) (protein, UniProt P08476 311-426, looked up)
Inhibin beta A chain: GLECDGKVNICCKKQFFVSFKDIGWNDWIIAPSGYHANYCEGECPSHIAGTSGSSLSFHSTVINHYRMRGHSPFANLKSCCVPTKLRPMSMLYYDDGQNIIKKDIQNMIVEECGCS
modifications: Inhibin beta A chain

How the values were obtained:
Assay type in all cases: cell-based, pig
porcine XEN cells [1] = test: Withdrawal of signaling molecules or supplements from porcine XEN cell medium (morphology, AP staining, GATA6 ICC); details: for colony morphology / proliferation on withdrawal of the factor: factor withdrawn from medium with B27, CHIR, FGF2, LIF, Act A, FIG. 3a; for AP staining and GATA6 expression on withdrawal of the factor: factor withdrawn, FIG. 3b, 3c
Method: Before staining, all cell samples were pre-cultured at 4° C. for 10 minutes and fixed with 4% paraformaldehyde for 15 minutes. After washing with Dulbecco's Phosphate Buffered Saline (DPBS) (Welgene), the fixed cells were stained with a buffer solution containing nitro blue tetrazolium chloride and 5-bromo-4-chloro-3-indolyl phosphate toluidine salt stock solution (Roche; Basel, Switzerland) at room temperature for 30 minutes. Stained cells were observed under an inverted microscope.
For immunostaining, the cells were fixed in 4% (w/v) paraformaldehyde. After washing with Dulbecco's Phosphate Buffered Saline (DPBS), the fixed cells were treated with 0.2% Triton-X100 (Sigma-Aldrich) at 4° C. for 2 hours. The cells were then treated with Dulbecco's Phosphate Buffered Saline (DPBS) containing 10% (v/v) goat or donkey serum for 1 hour to prevent non-specific binding. Serum-treated cells were cultured with primary antibodies at 4° C. for 24 hours. The primary antibodies used were as follows: rabbit anti-SOX2 (1:200, Millipore; AB5603), rabbit anti-NANOG (1:200, PeproTech; Rocky Hill, NJ, USA; 500-P236), chicken anti-OCT4 (1:100, Abcam; Cambridge, UK; ab134218), goose anti-GATA6 (15 μg/mL; R&D systems; AF1700), goose anti-SOX17 (1:200, R&D systems; AF1924), and rabbit anti-GATA4 (1:200, Abcam; ab84593). After incubation with primary antibodies, the cells were treated with Alexa Fluor-conjugated secondary antibodies at 4° C. for 24 hours. Nuclei were stained with Hoechst 33342 (Molecular Probes; Eugene, OR, USA). Images of stained cells were taken using a TE2000-U inverted fluorescence microscope (Nikon; Tokyo, Japan).
FIGS. 3a, 3b and 3c show changes in the withdrawal of signaling molecules or supplements for XEN cells.
In order to optimize the culture system of porcine XEN cells, B27 supplement, CHIR, FGF2, LIF or Act A was withdrawn from the medium during maintenance, and essential growth factors and signaling molecules were identified. Colonies were morphologically analyzed (FIG. 3a). […] In order to verify the responsiveness to these factors, AP staining and ICC for GATA6, which is a representative XEN cell marker, were performed to support the morphological analysis results (FIGS. 3b and 3c).

porcine XEN cells [2] = test: Culture of porcine XEN cells under various concentrations of essential factors (colony number, qPCR); details: for concentration range appropriate for XEN cell culture: 7 days, colony number and qPCR of GATA6, SALL4, SPARC
Method: Total RNA was extracted using TRIzol reagent (Invitrogen; Carlsbad, USA) and cDNA was synthesized using High-Capacity RNA-to-cDNA Kit (Applied Biosystems; Waltham, MA, USA). cDNA was amplified using the primer sets listed in Table 1 below and PowerSYBR® Green PCR Master Mix (Applied Biosystems).
In addition, in order to fine-tune the culture system, porcine XEN cells were cultured under various concentrations of essential factors including FGF2, LIF and CHIR99021.

porcine XEN cells [3] = test: Screening of serum-free culture conditions (signaling molecules, KSR, B27) for porcine XEN cells; details: FIG. 2a
Method: Porcine XEN cells were cultured under various conditions. Each of six fetal bovine serum (FBS) (three different batches purchased from Hyclone, Biowest, TCB and Genedepot) was applied to maintain porcine XEN cells. In addition, several signaling molecules and supplements were added to the basal medium supplemented with 15% (v/v), 10% (v/v) or 5% (v/v) knockout serum replacement (KSR) (Gibco; Gaithersburg, MD, USA) and tested. Factors tested were fibroblast growth factor 2 (FGF2) (R&D Systems; Minneapolis, MN, USA), human recombinant leukemia inhibitory factor (hrLIF) (Millipore; MA, USA), 5 ng/ml activin A (Activin A; R&D Systems), CHIR99021 (Cayman chemical; Ann Arbor, MI, USA), which is a GSK-3B inhibitor, and 1×B27 supplement (Gibco). The basal medium was a DMEM/F12 based medium, which consisted of 1× Glutamax, 0.1 mM β-mercaptoethanol and 1× antibiotic-antimycotic (all of which are manufactured by Gibco). The medium was changed every 24 hours and cultured under conditions of 5% CO2, 5% O2 and 38° C.
The present inventors performed screening of various factors in a DMEM/F12-based KSR-containing medium, which is commonly used for a serum-free medium in stem cells.

Molecule	colony morphology / proliferation on withdrawal of the factor (porcine XEN cells [1])	AP staining and GATA6 expression on withdrawal of the factor (porcine XEN cells [1])	concentration range appropriate for XEN cell culture (porcine XEN cells [2])	number of XEN colonies (porcine XEN cells [2]; low concentration of the factor, FIG. 4a, 4b)	doubling time (porcine XEN cells [3]; DMEM/F12-based KSR-containing medium, factor alone)	proliferation / growth of XEN cells (porcine XEN cells [3]; DMEM/F12-based KSR-containing serum-free medium, 2b)	self-renewal of porcine XEN cells (porcine XEN cells [1]; high concentration, control versus Act A withdrawn)
LIF: human recombinant leukemia inhibitory factor (hrLIF) (Millipore)	cell proliferation was inhibited	detected locally; also recorded: intense GATA6 expression only in the colony center	0.1 to 20 ng/mL				
FGF2: fibroblast growth factor 2 (FGF2) (R&D Systems)	no colonies after 4 days	detected locally	10 to 100 ng/mL	few colonies were detected	prolonged	insufficient to proliferate XEN cells	
Cc1c[nH]c(-c2cnc(NCCNc3ccc(C#N)cn3)nc2-c2ccc(Cl)cc2Cl)n1 [CHIR99021, reference compound]	colony boundaries collapsed and cell density within colonies decreased	detected locally	0.5 to 4.5 µM				
B1		evenly positive					inhibits the self-renewal
